Measurements: US20240139138A1, “COMPOSITION OF AND METHOD FOR TREATING INJURY AND/OR SKIN CONDITIONS” (Omeza Holdings, Inc., priority 2022, published 2024)

Key:
[1] = system: Methicillin Resistant Staphylococcus aureus MRSA USA300; assay: In-vitro agar well diffusion, zone of bacterial growth inhibition; format: cell-based
Protocol: All challenge inoculum suspensions were prepared by swabbing a 3-cm diameter area of the growth from a culture plate into 4.5 ml of sterile phosphate buffer solution (PBS). […] The concentration was confirmed using historical optical density measurements. […] Concentrations of 10^4 CFU/ml for each bacteria was tested in this study.
Three (3) plates of Tryptic soy agar with 5% sheep blood (TSAII) per treatment for each bacteria was challenged with 100 μl of each inoculum 10^4 CFU/ml (MRSA USA300 or PA27312).
Inoculums were spread around each plate using 3 mm sterile glass beads.
Three (10 mm) punch biopsies were made on all inoculated TSAII blood culture media plates and those biopsies were removed with a sterile spatula to create wells on each plate.
Approximately 150-200 μl of each treatment was placed in the well of the inoculated TSA II plates. […] Negative Control Petrolatum or Sterile PBS.
Treatments were allowed to diffuse into agar for approximately 2-3 hours at room temperature prior to incubating plates for 24 hours at 37° C.
After the incubation period, the zones of bacteria growth inhibition (if any) were measured using ImageJ 1.4lo software.
IBM SSPS Statistics Version 26 with ANOVA statistical analysis was used to determine any differences between treatments.

[2] = Solubility in anhydrous lipophilic oil composition
[3] = average of 9 wells, 10^4 CFU/ml
[4] = average of 9 wells, 10^4 CFU/ml, ImageJ area

Row | Structure (SMILES) | zone of inhibition, comparison in words ([1]; MRSA USA300) | Average Inhition in cm2 [1, 3] [cm2] | Diameter cm (of average inhibition zone) [1, 3] [cm] | Average Inhibition Zone vs Each disk [1, 4] | Average Inhibition Zone vs disk average [1, 4] | areas of inhibition zones ([1]; mean ± spread, 10^4 CFU/ml MRSA USA300) [cm^2] | inherent solubility in an oil [2]
1 | C/C(=C\C(=O)OCCCCCCCCC(=O)O)C[C@@H]1OC[C@H](C[C@@H]2O[C@H]2[C@@H](C)[C@H](C)O)[C@@H](O)[C@H]1O [Mupirocin] | largest zone of inhibition | 42.81 | 7.3849 | 244618.78 | 244618.78 | 42.81±0.29 | –
2 | CCCCCCCCCCCC(=O)OCC(O)CO (stereo not shown) [monolaurin, glycerol monolaurate] | – | – | – | – | – | – | less than or equal to 0.6%
